In US20260069588A1, “VEPDEGESTRANT FOR USE IN TREATING CANCER” (Arvinas Operation, Inc., priority 2022, published 2026):

Assays:
[1] = 3-month GLP oral toxicity study in rats; assay type: in vivo, rat; details: for AUC(0-t) / Cmax: po, 300 mg/kg/day
Procedure: Male and female rats, 10/sex/group, were administered 0 (vehicle), 30, 100, or 300 mg/kg/day. Assessment of toxicity was based on mortality, clinical observations, BWs, food consumption, ophthalmic examinations, and clinical and anatomic pathology. Blood samples for TK were obtained from a satellite group of animals.

CK1α = CK1α (Homo sapiens, UniProt P48729); test: Cereblon neomorphic substrate degradation, CK1α; assay type: cell-based; details: in vitro
Sequence of CK1α (Q96SW2 whole entry partner): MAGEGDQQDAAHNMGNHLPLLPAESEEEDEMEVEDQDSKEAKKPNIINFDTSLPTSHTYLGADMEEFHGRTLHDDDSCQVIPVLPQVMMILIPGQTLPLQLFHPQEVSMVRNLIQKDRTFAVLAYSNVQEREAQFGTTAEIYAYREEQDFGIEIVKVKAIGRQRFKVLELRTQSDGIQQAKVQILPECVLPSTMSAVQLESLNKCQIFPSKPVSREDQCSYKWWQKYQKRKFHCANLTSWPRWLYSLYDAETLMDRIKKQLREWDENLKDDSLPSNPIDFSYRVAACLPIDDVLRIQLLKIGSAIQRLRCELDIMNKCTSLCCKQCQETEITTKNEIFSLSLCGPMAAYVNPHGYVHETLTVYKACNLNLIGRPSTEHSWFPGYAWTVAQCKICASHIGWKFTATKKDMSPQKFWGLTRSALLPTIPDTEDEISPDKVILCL
Sequence of CK1α (Q16531 whole entry partner): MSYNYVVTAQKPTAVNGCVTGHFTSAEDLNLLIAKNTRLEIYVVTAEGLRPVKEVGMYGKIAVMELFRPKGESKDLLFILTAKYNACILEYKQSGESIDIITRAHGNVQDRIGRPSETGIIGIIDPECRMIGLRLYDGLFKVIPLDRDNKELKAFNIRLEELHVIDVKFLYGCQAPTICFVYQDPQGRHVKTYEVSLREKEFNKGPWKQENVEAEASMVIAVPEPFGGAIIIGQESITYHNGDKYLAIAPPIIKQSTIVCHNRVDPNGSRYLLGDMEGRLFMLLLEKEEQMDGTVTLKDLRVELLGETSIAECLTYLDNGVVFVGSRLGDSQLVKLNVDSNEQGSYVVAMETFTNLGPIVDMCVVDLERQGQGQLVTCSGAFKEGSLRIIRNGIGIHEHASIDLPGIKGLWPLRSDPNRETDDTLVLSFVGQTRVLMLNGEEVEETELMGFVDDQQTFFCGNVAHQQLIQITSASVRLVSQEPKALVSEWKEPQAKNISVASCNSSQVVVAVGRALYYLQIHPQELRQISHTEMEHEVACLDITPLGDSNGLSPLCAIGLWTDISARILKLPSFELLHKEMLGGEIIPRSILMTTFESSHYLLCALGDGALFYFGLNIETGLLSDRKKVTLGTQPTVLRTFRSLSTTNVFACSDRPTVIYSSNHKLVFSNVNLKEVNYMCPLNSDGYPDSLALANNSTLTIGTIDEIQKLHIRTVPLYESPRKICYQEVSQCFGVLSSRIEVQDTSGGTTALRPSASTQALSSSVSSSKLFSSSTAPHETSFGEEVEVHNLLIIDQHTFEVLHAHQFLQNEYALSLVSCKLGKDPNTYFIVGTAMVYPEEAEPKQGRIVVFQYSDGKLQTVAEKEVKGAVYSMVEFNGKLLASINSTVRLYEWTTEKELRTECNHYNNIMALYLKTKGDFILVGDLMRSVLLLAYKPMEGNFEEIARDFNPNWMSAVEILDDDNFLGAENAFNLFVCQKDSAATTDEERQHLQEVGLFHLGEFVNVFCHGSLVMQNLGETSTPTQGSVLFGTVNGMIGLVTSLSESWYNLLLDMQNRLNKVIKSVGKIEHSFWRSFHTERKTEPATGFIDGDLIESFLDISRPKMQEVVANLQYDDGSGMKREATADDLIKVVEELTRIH
Sequence of CK1α (P48729 whole entry): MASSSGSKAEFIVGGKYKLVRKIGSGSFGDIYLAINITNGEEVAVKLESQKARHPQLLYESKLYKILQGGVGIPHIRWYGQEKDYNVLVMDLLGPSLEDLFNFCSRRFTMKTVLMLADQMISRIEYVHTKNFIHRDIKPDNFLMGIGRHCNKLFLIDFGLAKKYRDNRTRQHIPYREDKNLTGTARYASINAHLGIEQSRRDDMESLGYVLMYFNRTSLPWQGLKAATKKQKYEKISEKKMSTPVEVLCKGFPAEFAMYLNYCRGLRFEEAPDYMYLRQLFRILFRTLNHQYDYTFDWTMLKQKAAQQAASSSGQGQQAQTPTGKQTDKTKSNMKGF
Excerpt: These drugs bind to cereblon and promote the degradation of novel (neomorphic) substrates.

[2] = 28-day GLP oral toxicity study in rats; details: both sexes, in vivo; rat, 28 days oral
Procedure: There were no mortalities and no Compound A-related clinical observations or changes in BWs or food consumption, and no FOB observations or ophthalmology findings. Minor clinical pathology changes at the 100 mg/kg/day dose level (minimally higher lymphocyte count in males, minimally lower calcium concentration in both sexes, minimally lower albumin concentration in males, and mildly lower cholesterol concentration in females) were potentially Compound A-related but were reversible and were not considered adverse.
Compound A-related microscopic findings included increased ovarian cysts in females administered ≥3 mg/kg/day and atrophy of the uterus and of the cervical and vaginal mucosal epithelium in females administered ≥10 mg/kg/day. […] Similar findings had been noted in a few animals in the 7-day study.

[3] = pH effect on absorption with famotidine in fasted rats and dogs; assay type: in vivo; details: spray-dried dispersion
T47D cells = test: Live-cell imaging proliferation, T47D; assay type: cell-based; details: Homo sapiens, 144 h, up to 6 days
Excerpt: Full growth of the cells over this time period is shown by extent of cell confluence with dimethyl sulfoxide (DMSO).

[4] = Phase 2 study of Compound A or anastrozole in early ER+/HER2− breast cancer: adverse events
Excerpt: The study will also evaluate safety, tolerability, and clinical and pathological response after approximately 5.5 months of treatment.

P-gp = P-gp (Homo sapiens, UniProt P08183); test: Efflux transporter substrate assessment (inside-out vesicular assay), P-gp; assay type: in vitro ADME
Sequence of P-gp (P08183 whole entry): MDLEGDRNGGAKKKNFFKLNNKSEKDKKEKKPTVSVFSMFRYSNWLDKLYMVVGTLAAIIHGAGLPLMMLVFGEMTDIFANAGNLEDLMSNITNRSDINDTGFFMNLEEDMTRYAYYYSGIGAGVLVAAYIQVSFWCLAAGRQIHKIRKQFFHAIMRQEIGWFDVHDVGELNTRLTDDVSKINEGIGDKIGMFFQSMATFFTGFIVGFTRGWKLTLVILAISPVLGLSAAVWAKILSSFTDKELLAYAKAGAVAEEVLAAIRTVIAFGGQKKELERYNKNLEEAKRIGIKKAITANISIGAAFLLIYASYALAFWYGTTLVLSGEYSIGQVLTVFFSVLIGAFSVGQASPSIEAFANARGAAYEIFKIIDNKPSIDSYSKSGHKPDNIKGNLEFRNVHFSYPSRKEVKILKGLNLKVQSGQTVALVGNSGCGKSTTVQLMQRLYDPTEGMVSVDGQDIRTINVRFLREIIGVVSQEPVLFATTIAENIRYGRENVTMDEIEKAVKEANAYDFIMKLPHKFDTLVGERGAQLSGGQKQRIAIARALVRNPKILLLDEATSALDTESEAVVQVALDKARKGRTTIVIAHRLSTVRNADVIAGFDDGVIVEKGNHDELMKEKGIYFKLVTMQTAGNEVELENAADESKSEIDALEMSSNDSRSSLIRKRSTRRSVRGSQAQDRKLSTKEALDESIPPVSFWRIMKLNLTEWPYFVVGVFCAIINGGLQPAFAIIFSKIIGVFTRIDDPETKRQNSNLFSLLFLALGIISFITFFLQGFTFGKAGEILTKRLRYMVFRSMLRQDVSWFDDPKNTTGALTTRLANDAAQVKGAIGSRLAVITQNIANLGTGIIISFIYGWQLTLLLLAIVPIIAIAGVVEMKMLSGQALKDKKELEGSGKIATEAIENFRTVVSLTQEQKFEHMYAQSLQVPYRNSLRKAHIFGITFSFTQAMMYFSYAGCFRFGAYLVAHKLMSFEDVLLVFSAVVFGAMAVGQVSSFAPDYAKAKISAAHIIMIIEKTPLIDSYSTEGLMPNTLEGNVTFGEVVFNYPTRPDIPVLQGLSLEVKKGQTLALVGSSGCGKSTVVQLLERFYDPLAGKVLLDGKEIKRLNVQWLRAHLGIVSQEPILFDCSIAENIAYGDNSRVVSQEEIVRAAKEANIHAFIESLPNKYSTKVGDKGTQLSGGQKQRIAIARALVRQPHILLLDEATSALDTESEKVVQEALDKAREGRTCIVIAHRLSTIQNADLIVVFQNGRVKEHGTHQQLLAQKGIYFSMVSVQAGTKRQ

ERP = ERP (Homo sapiens, UniProt Q92731); test: Secondary pharmacodynamics binding, ERP; details: in vitro
Sequence of ERP (Q92731 whole entry): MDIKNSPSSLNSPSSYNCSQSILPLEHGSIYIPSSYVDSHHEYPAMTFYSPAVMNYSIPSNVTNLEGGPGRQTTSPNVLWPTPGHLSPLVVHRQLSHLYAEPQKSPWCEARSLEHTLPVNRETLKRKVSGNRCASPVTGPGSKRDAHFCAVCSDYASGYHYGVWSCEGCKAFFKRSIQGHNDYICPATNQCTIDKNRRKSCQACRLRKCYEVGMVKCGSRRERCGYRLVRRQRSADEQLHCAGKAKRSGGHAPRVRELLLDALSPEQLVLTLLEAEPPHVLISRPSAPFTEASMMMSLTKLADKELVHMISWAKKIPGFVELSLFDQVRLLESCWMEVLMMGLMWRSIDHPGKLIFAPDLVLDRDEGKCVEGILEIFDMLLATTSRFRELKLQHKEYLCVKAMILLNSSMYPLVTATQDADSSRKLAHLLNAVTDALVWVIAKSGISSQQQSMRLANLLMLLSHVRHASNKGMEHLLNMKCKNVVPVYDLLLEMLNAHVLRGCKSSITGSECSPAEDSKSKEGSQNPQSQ

[5] = GLP cardiovascular telemetry study in beagle dogs with TK phase; assay type: in vivo, dog
Procedure: A lead-in single-dose TK and tolerability study conducted prior to the telemetry study indicated approximately dose-proportional increase in exposure between 200 and 400 mg/kg in the dog.

[6] = female, human, in vivo
Excerpt: The severity of adverse events was graded according to the National Cancer Institute Common Terminology Criteria for Adverse Events (NCI CTCAE) version 5.0.

[7] = Tablet performance in fed and fasted dogs; assay type: in vivo, dog; details: 50 mg tablet QD, fed vs fasted
Procedure: For 6 days, dogs received a single 50 mg tablet QD after pre-treatment with pentagastrin. Little accumulation was observed over the course of the study. In addition, exposure in chow-fed dogs was similar to that obtained for solution formulations administered at a similar dose. To reduce the pill burden, a 100 mg tablet was developed and when tested in dogs, similar exposure was observed when dogs were dosing with a 50 mg tablet.

[8] = 7-day oral dose range finding toxicity study in dogs; assay type: in vivo; details: dog, up to 120 mg/kg/day, 7 days
[9] = TEAE, Treatment Related per title, Compound A 200 mg N = 23, Anastrozole 1 mg N = 13
[10] = both sexes, beagle, plasma, dog n=8, 400 mg/kg single oral, TK phase

Structure (SMILES): O=C1CC[C@H](N2Cc3cc(N4CCN(CC5CCN(c6ccc([C@@H]7c8ccc(O)cc8CC[C@@H]7c7ccccc7)cc6)CC5)CC4)ccc3C2=O)C(=O)N1 [Compound A, (S)-3-(5-(4-((1-(4-((1R,2S)-6-hydroxy-2-phenyl-1,2,3,4-tetrahydronaphthalen-1-yl)phenyl)piperidin-4-yl)methyl)piperazin-1-yl)-1-oxoisoindolin-2-yl)piperidine-2,6-dione]
- sex differences in Cmax and AUC0-24 ([1]; both, rat, in vivo): less than 2 fold
- NOAEL ([1]; female rats, 3 months oral): a NOAEL was not determined
- AUC(0-t) ([1]; female, rat, in vivo): 75000 ng·h/mL
- Cmax ([1]; female, rat, in vivo): 3710 ng/mL
- AUC(0-t) ([1]; male, rat, in vivo): 88500 ng·h/mL
- Cmax ([1]; male, rat, in vivo): 4330 ng/mL
- NOAEL at 3 months ([1]; rat, in vivo, male rats, 3 months oral): 300 mg/kg/day
- degradation of CK1α (CK1α): did not degrade
- NOAEL at 28 days [2]: 100 mg/kg/day
- pH effect on absorption with famotidine [3]: lowered PK at neutral pH
- GI50 (T47D cells): 1.7 nM
- participants on Compound A with a treatment-related AE ([4]; 200 mg, seven participants, 6 Jun 2023): 19.4%
- Anemia [4, 9]: 0 n (%)
- Arthralgia [4, 9]: 0 n (%)
- Asphyxia [4, 9]: 1 (4.3) n (%)
- Asthenia [4, 9]: 2 (8.7) n (%)
- Blood and lymphatic system disorders [4, 9]: 1 (4.3) n (%)
- Blood uric acid increased [4, 9]: 1 (4.3) n (%)
- Breast pain [4, 9]: 1 (4.3) n (%)
- Cardiac disorders [4, 9]: 1 (4.3) n (%)
- Constipation [4, 9]: 2 (8.7) n (%)
- Diarrhea [4, 9]: 1 (4.3) n (%)
- Dyspepsia [4, 9]: 0 n (%)
- Fatigue [4, 9]: 1 (4.3) n (%)
- Gastrointestinal disorders [4, 9]: 4 (17.4) n (%)
- General disorders and administration site conditions [4, 9]: 4 (17.4) n (%)
- Hematocrit decreased [4, 9]: 0 n (%)
- Heparin-induced thrombocytopenia [4, 9]: 1 (4.3) n (%)
- Hepatobiliary disorders [4, 9]: 3 (13.0) n (%)
- Hot flush [4, 9]: 3 (13.0) n (%)
- Hyperbilirubinemia [4, 9]: 2 (8.7) n (%)
- Hypercalcemia [4, 9]: 1 (4.3) n (%)
- Hyperglycemia [4, 9]: 2 (8.7) n (%)
- Hypernatremia [4, 9]: 1 (4.3) n (%)
- Hypertransaminasemia [4, 9]: 1 (4.3) n (%)
- Hypokalemia [4, 9]: 1 (4.3) n (%)
- Hyponatremia [4, 9]: 1 (4.3) n (%)
- Injury, poisoning and procedural complications [4, 9]: 1 (4.3) n (%)
- Insomnia [4, 9]: 1 (4.3) n (%)
- Investigations [4, 9]: 1 (4.3) n (%)
- Lymphopenia [4, 9]: 0 n (%)
- Metabolism and nutrition disorders [4, 9]: 2 (8.7) n (%)
- Musculoskeletal and connective tissue disorders [4, 9]: 0 n (%)
- Myalgia [4, 9]: 0 n (%)
- Nervous system disorders [4, 9]: 2 (8.7) n (%)
- Odynophagia [4, 9]: 1 (4.3) n (%)
- Procedural pain [4, 9]: 1 (4.3) n (%)
- Pruritus [4, 9]: 1 (4.3) n (%)
- Psychiatric disorders [4, 9]: 2 (8.7) n (%)
- Pyrexia [4, 9]: 1 (4.3) n (%)
- Reproductive system and breast disorders [4, 9]: 1 (4.3) n (%)
- Respiratory, thoracic and mediastinal disorders [4, 9]: 1 (4.3) n (%)
- Sinus bradycardia [4, 9]: 1 (4.3) n (%)
- Skin and subcutaneous tissue disorders [4, 9]: 1 (4.3) n (%)
- Somnolence [4, 9]: 2 (8.7) n (%)
- Stomatitis [4, 9]: 1 (4.3) n (%)
- Tension [4, 9]: 1 (4.3) n (%)
- Vascular disorders [4, 9]: 3 (13.0) n (%)
- With Any Adverse Event [4, 9]: 11 (47.8) n (%)
- substrate of P-gp (P-gp): unlikely to be a substrate
- binding (ERP): bound
- Cmax [5, 10]: 16000 ng/mL
- Tmax [5, 10]: 5.1 h
- AUC(0-t) ([5]; both sexes, beagle, plasma, dog n=8, 400 mg/kg single oral, TK phase, read-out: mean AUC0-24): 272000 ng·h/mL
- QT- or QTc-interval ([5]; dog, 400 mg/kg): no changes in QT- or QTc-interval
- shortening of the PR interval ([5]; dog, 400 mg/kg, 1 to 3.25 hours postdose): 7 ms
- cardiovascular effects ([5]; dog, single oral 90 and 200 mg/kg): No Compound A-related effects were noted
- TEAE COVID-19 [6]: 11.8%
- increase in AUC in fed dogs [7]: 3 fold
- tolerability [8]: well tolerated
